# Assay results published in patent US10696686B2, “Herbicidally active (alkynyl-phenyl)-substituted cyclic dione compounds and derivatives thereof” (Syngenta Limited, priority 2013, dated 2020).
# Assays:
# Experiment in all cases: Biological Example 3 glasshouse assay using various adjuvant systems, post-emergence foliar spray
# Type in all cases: in vivo
# [1] = test system: Glycine max (GLXMA, soybean) cultivar Nikko; details: post-emergence, 14 DAA (A11: 14 or 15 DAA), adjuvant 0.5% v/v Adigor + 1.0% v/v AMS + 12.5% v/v IPA
# Description: (§1) Post-emergence foliar spray application, 200 L/ha, usually one or two replicates for the weeds (depending on application rate), and two replicates for soybean.
# (§2) Standard warm conditions (tropical), in glasshouse. Specifically, the glasshouse bay conditions are 24° C./18° C. day/night; 16/8 hours light/dark; 65% humidity.
# (§3) The herbicidal application takes place at the following growth stages for plants which include inter alia one or more of the following plants (usually the herbicidal application takes place on at least the following plants: DIGSA, ELEIN, SETFA, ZEAMX, GLXMA Nikko, and GLXMA TMG133, and often also either BRADC or BRAPP):
# Glycine max (GLXMA, soybean) cultivar “Nikko”—growth stage: 1st trifoliate
# (§4) Each test compound is applied with one of the following adjuvant systems (all percentages are final concentrations in the aqueous spray mixture):
# (§5) Adjuvant system 1: 0.5% v/v Adigor™ *, 1.0% v/v AMS (ammonium sulphate) and 12.5% v/v IPA (isopropyl alcohol).
# (§6) Adjuvant system 1A: 0.5% v/v Adigor™ * and 12.5% v/v IPA (isopropyl alcohol).
# (§7) CAS Registry no. 166412-78-8), and is usually available from BASF. “Isononyl” in this context is thought to mean a mixture of two or more branched isomers of C9H19. Method: Seeds of the weed (including volunteer) plants, typically including inter alia Digitaria sanguinalis (DIGSA), Eleusine indica (ELEIN), Setaria faberi (SETFA), Zea mays (ZEAMX, corn), and sometimes also [either Brachiaria decumbens (BRADC) or Brachiaria platyphylla (BRAPP)], are sown in seed trays (troughs) containing clay loam soil (pH 7.0, 2.2% organic matter, “Trough Mix A”); and soybean seed is sown in pots containing the same soil with 3 soybean seedlings per pot. The plants are sprayed with the test herbicide when they reach the growth stages mentioned above. The test herbicidal solutions are prepared by mixing the appropriate aliquots of the test substance(s) and one of the adjuvant systems indicated above *** in deionised water to give the desired treatment concentration. The herbicidal application is made as a foliar spray, using a tracksprayer. Following the herbicidal application, the plants are watered twice per day for the duration of the test. A visual assessment of the % herbicidal damage is made 7 and 14 Days After herbicide Application (DAA) (or, in a minority of cases, 7 and 15 DAA), and the results are recorded as % visual herbicidal damage where 0%=no damage to plants and 100%=plant totally killed. *** Adjuvant system=either Adigor™ or Hexamoll DINCH™ or tris-(2-ethylhexyl) phosphate each at 0.5% v/v, and 12.5% v/v IPA (isopropyl alcohol), and 1.0% v/v AMS (ammonium sulphate); or 0.5% v/v Adigor™ and 12.5% v/v IPA (isopropyl alcohol); all percentages are final concentrations in the aqueous spray mixture.
# (§8) Compounds A8, A11 and A17, which are compounds of formula (I) according to the present invention, were tested in a test method substantially as described above.
# (§9) Compound A8 was tested using the 0.5% v/v Adigor™+12.5% v/v IPA adjuvant system. Compounds A11 and A17 were tested using the 0.5% v/v Adigor™+1.0% v/v AMS+12.5% v/v IPA adjuvant system.
# The percentages of herbicidal damage/plant control, at 14 Days After herbicide Application (DAA) (or, in a minority of cases, at 15 DAA), for the Compounds tested and for some of the plants tested, were in the following percentage ranges. At least for Compounds A8 and A17, the phytotoxicity results shown herein are the average of 2 repetitions (for the grassy weeds, corn and soybean). […] Control of Zea mays (ZEAMX, Corn), a Warm-Climate (Warm-Season) Grassy Plant Zea mays (ZEAMX, maize, corn) is often present as a “volunteer” weed (“volunteer” corn) in fields where it was planted as a crop in preceding growing season(s) and where the present field crop is not corn. […]
# Setaria faberi (SETFA) = details: 8 g/ha, 14 DAA (A11: 14 or 15 DAA), adjuvant 0.5% v/v Adigor + 1.0% v/v AMS + 12.5% v/v IPA
# Description: as §1, §2, §3
# Setaria faberi (SETFA)—growth stage 12 or 13
# as §4, §5, §6
# (§10) CAS Registry no. […] A visual assessment of the % herbicidal damage is made 7 and 14 Days After herbicide Application (DAA) (or, in a minority of cases, 7 and 15 DAA), and the results are recorded as % visual herbicidal damage where 0%=no damage to plants and 100%=plant totally killed. *** Adjuvant system=either Adigor™ or Hexamoll DINCH™ or tris-(2-ethylhexyl) phosphate each at 0.5% v/v, and 12.5% v/v IPA (isopropyl alcohol), and 1.0% v/v AMS (ammonium sulphate); or 0.5% v/v Adigor™ and 12.5% v/v IPA (isopropyl alcohol); all percentages are final concentrations in the aqueous spray mixture. […]
# (§11) The percentages of herbicidal damage/plant control, at 14 Days After herbicide Application (DAA) (or, in a minority of cases, at 15 DAA), for the Compounds tested and for some of the plants tested, were in the following percentage ranges. […] Phytotoxicity on Glycine max (GLXMA, Soybean) Cultivar “TMG133” Glycine max (GLXMA, soybean) cultivar “TMG133” is Roundup Ready™ glyphosate-tolerant soybean cultivar TMG133, and is typically available from Monsanto in Brazil.
# [2] = test system: Glycine max (GLXMA, soybean) cultivar TMG133; details: 14 DAA (A11: 14 or 15 DAA), adjuvant 0.5% v/v Adigor + 1.0% v/v AMS + 12.5% v/v IPA
# Description: as §1, §2, §3
# Glycine max (GLXMA, soybean) cultivar “TMG133”—which is Roundup Ready™ glyphosate-tolerant soybean cultivar TMG133 (typically available from Monsanto in Brazil)—growth stage: 1st trifoliate.
# as §4, §5, §6, §7, §8, §9
# The percentages of herbicidal damage/plant control, at 14 Days After herbicide Application (DAA) (or, in a minority of cases, at 15 DAA), for the Compounds tested and for some of the plants tested, were in the following percentage ranges. […]
# Eleusine indica (ELEIN) = details: 8 g/ha, 14 DAA (A11: 14 or 15 DAA), adjuvant 0.5% v/v Adigor + 1.0% v/v AMS + 12.5% v/v IPA
# Description: as §1, §2, §3
# Eleusine indica (ELEIN)—growth stage 12 or 13
# as §4, §5, §6, §10, §11
# [3] = test system: Digitaria sanguinalis (DIGSA); details: 8 g/ha, 14 DAA (A11: 14 or 15 DAA), adjuvant 0.5% v/v Adigor + 1.0% v/v AMS + 12.5% v/v IPA
# Description: as §1, §2, §3
# Digitaria sanguinalis (DIGSA)—growth stage 12 or 13
# as §4, §5, §6, §10
# The percentages of herbicidal damage/plant control, at 14 Days After herbicide Application (DAA) (or, in a minority of cases, at 15 DAA), for the Compounds tested and for some of the plants tested, were in the following percentage ranges. […] Phytotoxicity on Glycine max (GLXMA, Soybean) Cultivar “TMG133” Glycine max (GLXMA, soybean) cultivar “TMG133” is Roundup Ready™ glyphosate-tolerant soybean cultivar TMG133, and is typically available from Monsanto in Brazil. […]
# [4] = test system: Zea mays (ZEAMX, maize, corn) cultivar Garland; details: 8 g/ha, 14 DAA (A11: 14 or 15 DAA), adjuvant 0.5% v/v Adigor + 1.0% v/v AMS + 12.5% v/v IPA
# Description: as §1, §2, §3
# Zea mays (ZEAMX, maize/corn, e.g. can occur as volunteer corn) cultivar “Garland”—growth stage 12 or 13
# as §4, §5, §6
# (§12) CAS Registry no. 166412-78-8), and is usually available from BASF. “Isononyl” in this context is thought to mean a mixture of two or more branched isomers of C9H19. […] A visual assessment of the % herbicidal damage is made 7 and 14 Days After herbicide Application (DAA) (or, in a minority of cases, 7 and 15 DAA), and the results are recorded as % visual herbicidal damage where 0%=no damage to plants and 100%=plant totally killed. *** Adjuvant system=either Adigor™ or Hexamoll DINCH™ or tris-(2-ethylhexyl) phosphate each at 0.5% v/v, and 12.5% v/v IPA (isopropyl alcohol), and 1.0% v/v AMS (ammonium sulphate); or 0.5% v/v Adigor™ and 12.5% v/v IPA (isopropyl alcohol); all percentages are final concentrations in the aqueous spray mixture. […]
# [5] = test system: Brachiaria decumbens (BRADC); details: 8 g/ha, 14 DAA (A11: 14 or 15 DAA), adjuvant 0.5% v/v Adigor + 1.0% v/v AMS + 12.5% v/v IPA
# Description: as §1, §2, §3
# Brachiaria decumbens (BRADC)—growth stage (GS) 12 or 13 (or GS 12)—or, if BRADC is not used, then usually Brachiaria platyphylla (BRAPP)—growth stage 12 or 13
# as §4, §5, §6, §12
smiles,measurement,setting,value
CC#Cc1cc(F)c(C2C(=O)CCCC2=O)c(OC)c1 [Compound A17],"percentage phytotoxicity on Glycine max (GLXMA, soybean) cultivar Nikko",[1]; 120 g/ha,5%
same,"percentage phytotoxicity on Glycine max (GLXMA, soybean) cultivar Nikko",[1]; 240 g/ha,7.5%
same,percentage control of Setaria faberi (SETFA),Setaria faberi (SETFA),0%
same,"percentage phytotoxicity on Glycine max (GLXMA, soybean) cultivar TMG133",[2]; 120 g/ha,5%
same,"percentage phytotoxicity on Glycine max (GLXMA, soybean) cultivar TMG133",[2]; 240 g/ha,7.5%
same,percentage control of Eleusine indica (ELEIN),Eleusine indica (ELEIN),0%
same,percentage control of Digitaria sanguinalis (DIGSA),[3],0%
same,"percentage control of Zea mays (ZEAMX, maize, corn)",[4],0%
same,percentage control of (phytotoxicity on) Brachiaria decumbens (BRADC),[5],0%
